Measured values from patent publication US9210927B2, “Pesticidal compositions and processes related thereto” (Dow AgroSciences LLC, priority 2013, dated 2015).

Legend:
Format in all cases: in vivo
[1] = tested on: CEW (Helicoverpa zea); assay: Bioassays on Corn Earworm (CEW), 128-well diet tray assay; conditions: Helicoverpa zea, 168 h; percent mortality, second instar larvae, 50 μg/cm^2 on artificial diet, five to seven days, 25° C.; read-out: CEW Rating
Summary of the method: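 Second-instar larvae (one to five per well) placed on artificial diet treated with 50 μg/cm^2 compound in 90:10 acetone-water and dried, eight wells per compound. Held 25 °C, 14:10 light-dark, five to seven days; percent mortality scored per well and averaged.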

[2] = tested on: BAW (Spodoptera exigua); assay: Bioassays on Beet Armyworm (BAW), 128-well diet tray assay; conditions: Spodoptera exigua, 168 h, read-out: BAW Rating
Summary of the method: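 Second-instar larvae (one to five per well) placed on artificial diet treated with 50 μg/cm^2 compound in 90:10 acetone-water, eight wells per compound. Held covered at 25° C., 14:10 light-dark for five to seven days; percent mortality averaged across wells.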

[3] = tested on: GPA (Myzus persicae); assay: Bioassays on Green Peach Aphid (GPA), foliar spray on cabbage seedlings; conditions: 72 h, corrected % control (Abbott), 200 ppm spray on cabbage seedlings, three days, read-out: GPA Rating
Method: Bioassays on Green Peach Aphid (“GPA”) (Myzus persicae) Certain molecules disclosed in this document were tested against GPA using procedures described in the following example. In the reporting of the results, the “GPA Rating Table” was used (See Table Section). Cabbage seedlings grown in 3-inch pots, with 2-3 small (3-5 cm) true leaves, were used as test substrate. The seedlings were infested with 20-50 GPA (wingless adult and nymph stages) one day prior to chemical application. Four pots with individual seedlings were used for each treatment. Test compounds (2 mg) were dissolved in 2 mL of acetone/MeOH (1:1) solvent, forming stock solutions of 1000 ppm test compound. The stock solutions were diluted 5× with 0.025% Tween 20 in H2O to obtain the solution at 200 ppm test compound. A hand-held aspirator-type sprayer was used for spraying a solution to both sides of […] leaves until runoff. Reference plants (solvent check) were sprayed with the diluent only containing 20% by volume of acetone/MeOH (1:1) solvent. Treated plants were held in a holding room for three days at approximately 25° C. and ambient relative humidity (RH) prior to grading. Evaluation was conducted by counting the number of live aphids per plant under a microscope. Percent Control was measured by using Abbott's correction formula (W. S. Abbott, “A Method of Computing the Effectiveness of an Insecticide” J. Econ. Entomol. 18 (1925), pp. 265-267) as follows. Corrected % Control=100*(X−Y)/X • where • X=No. of live aphids on solvent check plants and • Y=No. of live aphids on treated plants The results are indicated in the table entitled “Table 3: Assay Results” (See Table Section).

Row | Structure (SMILES) | pest or weed control at 50 µg/cm2 [1] | pest or weed control at 50 µg/cm2 [2] | pest or weed control at 200 ppm [3]
1 | O=C(NC1CSC1)c1ccc(/C=C/C(c2cc(Cl)c(Cl)c(Cl)c2)C(F)(F)F)cc1Br (stereo not shown) [AC32] | 50 to 100% | 50 to 100% | 0 to 80%
2 | O=C(NC1CS(=O)(=O)C1)c1ccc(/C=C/C(c2cc(Cl)c(Cl)c(Cl)c2)C(F)(F)F)cc1Br (stereo not shown) [AC33] | 50 to 100% | 50 to 100% | 0 to 80%
3 | O=C(NC1CSC1)c1ccc(/C=C/C(c2cc(Cl)c(Cl)c(Cl)c2)C(F)(F)F)cc1C(F)(F)F (stereo not shown) [AC34] | 50 to 100% | 50 to 100% | 0 to 80%
4 | O=C(NCc1ccc(Cl)nc1)c1ccc(/C=C/C(c2cc(Cl)c(Cl)c(Cl)c2)C(F)(F)F)cc1C(F)(F)F (stereo not shown) [AC36] | 50 to 100% | 50 to 100% | 0 to 80%
5 | Cc1cc(/C=C/C(c2ccc(Cl)c(Cl)c2)C(F)(F)F)ccc1C(=O)NCc1ccc(Cl)nc1 (stereo not shown) [AC37] | 50 to 100% | 50 to 100% | 0 to 80%
6 | Cc1cc(/C=C/C(c2cc(Cl)cc(Cl)c2)C(F)(F)F)ccc1C(=O)NCc1cnccn1 (stereo not shown) [AC43] | 50 to 100% | 50 to 100% | 0 to 80%
7 | Cc1cc(/C=C/C(c2cc(Cl)cc(Cl)c2)C(F)(F)F)ccc1C(=O)NCC(=O)NNC(=O)C1CC1 (stereo not shown) [AC47] | – | – | 0 to 80%
8 | Cc1cc(/C=C/C(c2cc(Cl)cc(Cl)c2)C(F)(F)F)ccc1C(=O)NCc1ccc(Cl)cc1 (stereo not shown) [AC48] | 50 to 100% | 50 to 100% | 0 to 80%
9 | O=C(NCc1ccc(Cl)nc1)c1ccc(/C=C/C(c2cc(Cl)cc(Cl)c2)C(F)(F)F)cc1F (stereo not shown) [AC49] | 50 to 100% | 50 to 100% | 0 to 80%
10 | Cc1cc(/C=C/C(c2cc(Cl)cc(Cl)c2)C(F)(F)F)ccc1C(=O)NCc1nccn1C (stereo not shown) [AC50] | – | 50 to 100% | 0 to 80%
11 | Cc1cc(/C=C/C(c2cc(Cl)cc(Cl)c2)C(F)(F)F)ccc1C(=O)NCC(=O)N(C)CC(F)(F)F (stereo not shown) [AC51] | 50 to 100% | 50 to 100% | 0 to 80%
12 | Cc1cc(/C=C/C(c2cc(Cl)c(F)c(Cl)c2)C(F)(F)F)ccc1C(=O)NC1CCOCC1 (stereo not shown) [AC52] | 50 to 100% | 50 to 100% | 0 to 80%
13 | Cc1cc(/C=C/C(c2cc(Cl)c(F)c(Cl)c2)C(F)(F)F)ccc1C(=O)NCc1ccc(Cl)cn1 (stereo not shown) [AC53] | 50 to 100% | 50 to 100% | 0 to 80%
14 | COc1cc(/C=C/C(c2cc(Cl)c(F)c(Cl)c2)C(F)(F)F)ccc1C(=O)NCc1ccc(Cl)nc1 (stereo not shown) [AC70] | – | – | 0 to 80%
15 | Cc1cc(/C=C\C(c2cc(Cl)cc(Cl)c2)C(F)(F)F)ccc1C(=O)NCc1ccc(Cl)nc1 (stereo not shown) [AC94] | 0 to 50% | – | 0 to 80%
16 | Cc1cc(/C=C/C(c2cc(Cl)cc(Cl)c2)C(F)(F)F)ccc1C(=O)N(C)Cc1ccc(Cl)nc1 (stereo not shown) [AC117] | – | 50 to 100% | 0 to 80%
17 | CC(C)(C)C(=O)NCc1ccc(/C=C/C(c2cc(Cl)c(Cl)c(Cl)c2)C(F)(F)F)cc1Cl (stereo not shown) [CC12] | – | – | 0 to 80%
18 | O=C(NCc1ccc(/C=C/C(c2cc(Cl)c(Cl)c(Cl)c2)C(F)(F)F)cc1Br)C1CC1 (stereo not shown) [CC26] | – | 50 to 100% | 0 to 80%
19 | CC(C)(C)OC(=O)NCc1ccc(/C=C/C(c2cc(Cl)c(Cl)c(Cl)c2)C(F)(F)F)cc1Cl (stereo not shown) [CC39] | – | – | 0 to 80%
20 | COC(=O)C(=O)NCc1ccc(/C=C/C(c2cc(Cl)c(Cl)c(Cl)c2)C(F)(F)F)cc1Cl (stereo not shown) [CC41, (E)-Methyl 2-((2-chloro-4-(4,4,4-trifluoro-3-(3,4,5-trichlorophenyl)but-1-en-1-yl)benzyl)amino)-2-oxoacetate] | – | – | 0 to 80%
21 | O=C(CC(F)(F)F)NOc1ccc(/C=C/C(c2cc(Cl)c(Cl)c(Cl)c2)C(F)(F)F)cc1 (stereo not shown) [CC53] | – | – | 0 to 80%
22 | COC(/C=C/c1ccc(-n2cncn2)cc1)(c1cc(Cl)cc(Cl)c1)C(F)(F)F (stereo not shown) [DC70, (E)-1-(4-(3-(3,5-Dichlorophenyl)-4,4,4-trifluoro-3-methoxybut-1-en-1-yl)phenyl)-1H-1,2,4-triazole] | 50 to 100% | 50 to 100% | –
